Tests used:
Assay in all cases: relative viability (nuclei count vs DMSO), 5 days (fraction); higher = more cells survive
[1] = compound: C[As](C)SC[C@H](NC(=O)CC[C@H](N)C(=O)O)C(=O)NCC(=O)O [Darinaparsin] + C[C@@H](Oc1cc(-c2cnn(C3CCNCC3)c2)cnc1N)c1c(Cl)ccc(F)c1Cl [Crizotinib] (partner 1 µM)
Summary of the method: (§1)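 Lung cancer cell lines were seeded in 1536-well plates and dosed by pin tool the next day, with either a single drug or a fixed anchor-drug dose combined with five library-drug doses (not always all listed) spaced in √10 steps. Five days later, one step fixed the cells and stained their nuclei (final 0.05% Triton X-100, 1% formaldehyde, 1 ug/ml Hoechst), and nuclei were counted on 4× images. Relative viability is the nuclei count in treated wells divided by the count in vehicle wells, and each value is the median of duplicate plates.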

AZ628 + Tozasertib = compound: CC1=C(C=C(C=C1)NC(=O)C2=CC(=CC=C2)C(C)(C)C#N)NC3=CC4=C(C=C3)N=CN(C4=O)C [AZ628] + Cc1cc(Nc2cc(N3CCN(C)CC3)nc(Sc3ccc(NC(=O)C4CC4)cc3)n2)n[nH]1 [Tozasertib] (partner 0.1 µM)
Summary of the method: as §1

QS11 + OSI-027 = compound: C1CC2=C(C1)C=C(C=C2)OC3=NC(=C4C(=N3)N(C=N4)CC5=CC=C(C=C5)C6=CC=CC=C6)N[C@@H](CC7=CC=CC=C7)CO [QS11] + COc1cccc2cc(-c3nc([C@H]4CC[C@H](C(=O)O)CC4)n4ncnc(N)c34)[nH]c12 [OSI-027] (partner 0.5 µM)
Summary of the method: as §1

[2] = compound: C[As](C)SC[C@H](NC(=O)CC[C@H](N)C(=O)O)C(=O)NCC(=O)O [Darinaparsin] + O=C(CCCCCCC(=O)Nc1ccccc1)NO [Vorinostat] (partner 1 µM)
Summary of the method: as §1

| Cell Line | relative viability ([1]; first compound 0.08 µM) | relative viability ([1]; first compound 0.8 µM) | relative viability ([1]; first compound 2.53 µM) | relative viability ([1]; first compound 8 µM) | relative viability (AZ628 + Tozasertib; first compound 0.08 µM) | relative viability (AZ628 + Tozasertib; first compound 0.253 µM) | relative viability (AZ628 + Tozasertib; first compound 0.8 µM) | relative viability (AZ628 + Tozasertib; first compound 2.53 µM) | relative viability (AZ628 + Tozasertib; first compound 8 µM) | relative viability (QS11 + OSI-027; first compound 0.08 µM) | relative viability (QS11 + OSI-027; first compound 0.253 µM) | relative viability (QS11 + OSI-027; first compound 0.8 µM) | relative viability (QS11 + OSI-027; first compound 8 µM) | relative viability ([2]; first compound 0.08 µM) | relative viability ([2]; first compound 0.8 µM) | relative viability ([2]; first compound 2.53 µM) | relative viability ([2]; first compound 8 µM) | relative viability (QS11 + OSI-027; first compound 2.53 µM) |
| --- | --- | --- | --- | --- | --- | --- | --- | --- | --- | --- | --- | --- | --- | --- | --- | --- | --- | --- |
| 201T | 1.09 | 1.02 | 1 | 1.09 | 0.939 | 0.861 | 1.04 | 0.899 | 0.89 | 0.759 | 0.685 | 0.662 | 0.836 | 1.03 | 0.905 | 0.917 | 1.14 |  |
| A549 | 1.33 | 0.891 | 0.605 | 0.985 |  |  |  |  |  |  |  |  |  |  |  |  |  |  |
| A-427 | 1.01 | 0.902 | 0.777 | 1.1 | 0.155 | 0.138 | 0.146 | 0.142 | 0.146 | 0.411 | 0.455 |  | 0.408 | 0.898 | 0.811 | 0.951 | 0.893 | 0.507 |
| ABC-1 | 1.21 | 1.16 | 0.875 | 1.29 | 0.226 | 0.166 | 0.215 | 0.201 | 0.175 | 0.477 | 0.348 | 0.519 | 0.457 | 1.59 | 1.09 | 1.05 | 1.26 | 0.492 |
| BEN | 0.956 | 1.01 | 0.741 | 1.17 | 0.511 | 0.498 | 0.444 | 0.471 | 0.383 | 0.304 | 0.316 | 0.309 | 0.3 | 0.572 | 0.602 | 0.688 | 0.65 | 0.33 |
| CAL-12T | 0.902 | 0.752 | 0.391 | 0.707 | 0.343 | 0.366 | 0.288 | 0.292 | 0.182 | 0.656 | 0.457 | 0.498 | 0.407 | 1.09 | 0.707 | 0.785 | 0.931 | 0.385 |
| COR-L23 | 0.818 | 0.648 | 0.601 | 0.661 | 0.186 | 0.15 | 0.157 | 0.146 | 0.12 | 0.756 | 0.881 | 0.568 | 0.444 | 0.453 | 0.523 | 0.425 | 0.433 | 0.475 |
| COR-L 105 | 0.745 | 0.687 |  | 0.866 | 0.387 | 0.374 | 0.359 | 0.315 | 0.376 | 0.711 | 0.521 | 0.547 | 0.447 | 0.908 | 0.656 | 0.822 | 0.932 | 0.629 |
| Calu-6 | 1.17 | 0.857 | 0.665 | 0.751 |  |  |  |  |  |  |  |  |  |  |  |  |  |  |
| ChaGo-K-1 | 1.38 | 1.14 | 0.924 | 1.1 | 0.241 | 0.231 | 0.218 | 0.212 | 0.171 | 0.358 | 0.666 | 0.749 | 0.569 | 0.848 | 0.788 | 0.754 | 0.769 | 0.659 |
| EBC-1 | 0.196 | 0.19 | 0.181 | 0.166 |  |  |  |  |  |  |  |  |  |  |  |  |  |  |
